Earlier results on 19 molecules are cited in PMC12308805, “Ultrahigh-Throughput Virtual Screening Strategies against PPI Targets: A Case Study of STAT Inhibitors” (Journal of Chemical Information and Modeling, 2025).

In one data set the test system is STAT3. To be noted: sheet 6QHD_actives_decoys; retrospective screening set for STAT3 SH2 domain (PDB 6QHD); […]; ref DUD-E; cited from earlier work.
Take `C=C1[C@@H](O)[C@@H]2O[C@]3(CC[C@@H]2O[C@@H]1[C@@H](O)C[C@H](C)[C@H]1O[C@@]2(CCCCO2)CC[C@H]1C)CC[C@H](/C=C/[C@@H](C)[C@H]1CC(C)=C[C@@]2(O[C@@H](C[C@@](C)(O)C(=O)O)CC[C@H]2O)O1)O3` [Decoy484]: the Type entry is listed as “Inactive (Decoy)”.

Staying with this data set, now noted: sheet 6QHD_actives_decoys; retrospective screening set for STAT3 SH2 domain (PDB 6QHD); decoys generated with DUD-E and presumed inactive, not tested; ref DUD-E; cited from earlier work.
As to `C[C@@H]1O[C@H](O[C@@H]2CC[C@]3(C)[C@H](CC[C@@H]4[C@@H]3CC[C@@]3(C)[C@@H](C5=CC(=O)OC5)CC[C@]43O)C2)C[C@H](O)[C@@H]1O[C@@H]1C[C@H](O)[C@H](O[C@H]2C[C@@H](O)[C@H](O)[C@@H](C)O2)[C@H](C)O1` [Decoy470], the Type entry is given as “Inactive (Decoy)”.

For the molecule `C[C@@H]1O[C@@H](O[C@H]2[C@H](O[C@@H]3CC[C@@H]4C(=CC[C@@H]5[C@@]4(C)C(=O)C[C@]4(C)[C@H]([C@@]6(C)O[C@@H](C(C)(C)O)CC6=O)[C@H](O)C[C@@]54C)C3(C)C)O[C@H](CO)[C@@H](O)[C@@H]2O)[C@H](O)[C@H](O)[C@H]1O` [Decoy471], the Type result is “Inactive (Decoy)”.

On to `C[C@@H]1O[C@@H](O[C@H]2[C@H](O[C@@H]3CC[C@@H]4C(=CC[C@@H]5[C@@]4(C)C(=O)C[C@]4(C)[C@H]([C@@]6(C)O[C@H](C(C)(C)O)CC6=O)[C@H](O)C[C@@]54C)C3(C)C)O[C@H](CO)[C@@H](O)[C@@H]2O)[C@H](O)[C@H](O)[C@H]1O` [Decoy472], for which the Type result was “Inactive (Decoy)”.

With `CCOC(=O)c1ccc(NC(=O)CSc2nnc(CNC(=O)COc3ccccc3)n2-c2cccc(C)c2)cc1` [Decoy473], the Type result was “Inactive (Decoy)”.

Consider `COc1cc(-c2nnc(SCC(=O)N/N=C/c3cccc(O)c3)n2-c2ccccc2)cc(OC)c1OC` [Decoy474], for which the Type result is “Inactive (Decoy)”.

Consider `CC(=O)O[C@@H]1[C@@H](O)[C@@H](O[C@@H](C/N=C/c2c(O)cc(O)c3ccccc23)[C@@H](CO)O[C@H](O)C/N=C/c2c(O)cc(O)c3ccccc23)O[C@@H](CO)[C@H]1O` [Decoy475], for which the Type result was “Inactive (Decoy)”.

`CCCSc1nnc(/N=C(\O)CSc2nnc(N/N=C/c3c(C)nn(C(C)C)c3C)n2N)s1` [Decoy476]: the Type entry is given as “Inactive (Decoy)”.

Regarding `CCNC(=O)COc1ccc(NC(=O)c2cc(S(=O)(=O)NCc3ccco3)ccc2C)cc1` [Decoy477], the Type entry is given as “Inactive (Decoy)”.

On to `CCN(CC)S(=O)(=O)c1cc(NC(=O)CSc2nnc(C(F)(F)F)n2N)ccc1C` [Decoy478], for which the Type result is “Inactive (Decoy)”.

For `CCN[C@H](c1cc(Br)ccc1Cl)c1cc(Br)ccc1Br` [Decoy479], the Type result is on record as “Inactive (Decoy)”.

With `COc1ccc(S(=O)(=O)N(CC(=O)Nc2ccccc2C(=O)NCc2ccco2)c2ccc(F)cc2)cc1OC` [Decoy480], the Type entry was “Inactive (Decoy)”.

Consider `COC(=O)CNC(=O)C[C@@](C)(O)CC(=O)O[C@H]1[C@@H](O)C[C@@]2(C)C3=C(CC[C@H]2C1(C)C)[C@@]1(C)CC[C@H]([C@H](CO)CC[C@H](O)C(C)(C)O)[C@]1(C)[C@@H](O)C3` [Decoy481], for which the Type entry is reported as “Inactive (Decoy)”.

For the molecule `CCOC(=O)c1sc(NC(=O)CCCS(=O)(=O)c2nc(-c3ccccc3OC)cc(C(F)(F)F)n2)c(C(N)=O)c1C` [Decoy482], the Type entry was “Inactive (Decoy)”.

Regarding `Cc1cc(NS(=O)(=O)c2ccc(N/N=C(/C#N)C(=O)Nc3ccc(S(N)(=O)=O)cc3)cc2)no1` [Decoy483], the Type result is “Inactive (Decoy)”.

`COc1cc(NS(=O)(=O)c2ccc(NC(=O)c3cccc(COc4cccc(Cl)c4)c3)cc2)nc(OC)n1` [Decoy485]: the Type entry was “Inactive (Decoy)”.

`O=C(Nc1ccc2c(O)c(/N=N/c3ccccc3)c(S(=O)(=O)O)cc2c1)Nc1ccc2c(O)c(/N=N/c3ccccc3)c(S(=O)(=O)O)cc2c1` [Decoy486]: the Type result is “Inactive (Decoy)”.

As for `O=C(CSc1n[nH]c(N/N=C/c2ccc(OCc3ccc(F)cc3)o2)n1)Nc1nccs1` [Decoy487], the Type result is “Inactive (Decoy)”.

`COCCOc1ccc(C(F)(F)F)cc1NC(=O)CSc1nnc(-c2ccc(OC)cc2)o1` [Decoy488]: the Type entry is recorded as “Inactive (Decoy)”.
